Test results from patent US4454156A, “4-Amino-hepta-5,6-dienoic acid” (Merrell-Toraude et Compagnie, priority 1982, dated 1984).
Values joined by “and” are separate entries in the source; they are usually repeats but may differ in a detail not shown here. Identical values can stand only once.

What was measured:
[1] = tested on: GABA-T; assay: GABA-T activity in mouse brain after a single i.p. or oral dose; assay type: in vivo, mice; conditions: for GABA-T Activity (calculated as percent inhibition): 6 h
Method: (§1) Male albino CD1 mice each weighing approximately 34 g at commencement of the test are given an i.p. injection of the test compound in aqueous solution daily for seven consecutive days. Half of the animals are killed by decapitation 24 hours after the last dose fo the test compound. The other half of the animals are observed for up to 12 days for toxicity (as indicated by weight loss and deaths). Control animals receive an injecion of the vehicle only.
(§2) The brains are removed from the dead mice and are divided into two portions by sagittal section. One half is used for the measurement of GABA-T activity while the other is used for measuring GABA content. The GABA-T activity is measured using known methods as described by M. Jung et al., J.Neurochem., 28, 717 (1977) and 29, 797 (1977). GABA content is measured by perchloric acid or trichloroacetic acid extracts using an amino acid analyzer equiped with a fluorescence detector.
A. The procedure of Example 3 is repeated using a single i.p. dose of the test compound and killing the mice 6 hours after the i.p. injection.
(§3) B. The procedure of Part A is repeated using both oral and i.p. doses of (R,S)-allenyl GABA.

[2] = tested on: GABA levels in the brain; assay: GABA content of mouse brain after seven daily i.p. doses; assay type: in vivo, mice (male albino CD1); conditions: 24 h after last dose
Method: as §1, §2

[3] = tested on: GABA levels in the brain; assay: GABA level in mouse brain after a single i.p. or oral dose; assay type: in vivo, mice; conditions: for GABA Level (calculated as percent of control): 6 h
Method: […] […] The other half of the animals are observed for up to 12 days for toxicity (as indicated by weight loss and deaths). Control animals receive an injecion of the vehicle only.
The brains are removed from the dead mice and are divided into two portions by sagittal section. One half is used for the measurement of GABA-T activity while the other is used for measuring GABA content. […] GABA content is measured by perchloric acid or trichloroacetic acid extracts using an amino acid analyzer equiped with a fluorescence detector.
as §3

[4] = Toxicity (lethality) after i.p. or oral administration to mice
Method: A. The toxicity of (S)-allenyl GABA and (R,S)-allenyl GABA was determined after i.p. administration to male mice. The mice were observed up to eight days after injection.
B. The toxicity of (S)-allenyl GABA ("S") and (R,S)-allenyl GABA ("R,S") was determined as in Part A after both oral and i.p. administration.

[5] = tested on: GABA-T; assay: GABA-T activity in mouse brain after seven daily i.p. doses; assay type: in vivo, mice (male albino CD1); conditions: 24 h after last dose
Method: as §1, §2

[6] = tested on: seizures and death induced by mercaptopropionic acid; assay: Protection of mice against seizures and death induced by mercaptopropionic acid; assay type: in vivo; conditions: for Number of Animals having seizures / Number of Dead animals: 6 h before mercaptopropionic acid 53 mg/kg i.p.
Source text: Mice (3.5) were given a single i.p. injection of the test compound. […] The results of the testing are set forth below

[7] = i.p., 0.77 mM/kg (135.9 mg/kg), single dose, Table 3
[8] = i.p., 1.94 mM/kg (342.4 mg/kg), single dose, Table 3
[9] = i.p., 3.87 mM/kg (683.1 mg/kg), single dose, Table 3
[10] = oral, 0.77 mM/kg (135.9 mg/kg), single dose, Table 3
[11] = oral, 1.94 mM/kg (342.4 mg/kg), single dose, Table 3
[12] = oral, 3.87 mM/kg (683.1 mg/kg), single dose, Table 3
[13] = single i.p. dose 1.55 mM/kg (273.5 mg/kg), Table 2
[14] = single i.p. dose 3.10 mM/kg (547.2 mg/kg), Table 2
[15] = single i.p. dose 6.2 mM/kg (1094.3 mg/kg), Table 2
[16] = 100 mg/kg i.p. daily for 7 days
[17] = mercaptopropionic acid model, mice

Structure (SMILES): C=C=CC(N)CCC(=O)O (racemic) [(R,S)-allenyl GABA, (R,S)-4-amino-hepta-5,6-dienoic acid]
- GABA-T Activity (calculated as percent inhibition) [1, 7]: 64 percent inhibition
- GABA-T Activity (calculated as percent inhibition) [1, 8]: 84 percent inhibition
- GABA-T Activity (calculated as percent inhibition) [1, 9]: 88 percent inhibition
- irreversible inhibition of GABA-T in vivo ([1]; in vivo): produce irreversible inhibition of GABA-T
- GABA-T Activity (calculated as percent inhibition) [1, 10]: 69 percent inhibition
- GABA-T Activity (calculated as percent inhibition) [1, 11]: 81 percent inhibition
- GABA-T Activity (calculated as percent inhibition) [1, 12]: 86 percent inhibition
- GABA-T Activity (calculated as percent inhibition) [1, 13]: 76 percent inhibition
- GABA-T Activity (calculated as percent inhibition) [1, 14]: 89 percent inhibition
- GABA-T Activity (calculated as percent inhibition) [1, 15]: 96 percent inhibition
- GABA Level (calculated as percent of control) ([2]; 50 mg/kg i.p. daily for 7 days): 130% of control
- GABA Level (calculated as percent of control) [2, 16]: 180% of control
- elevation of GABA levels in the CNS ([3]; administered orally or parenterally): can elevate GABA levels significantly in the CNS
- GABA Level (calculated as percent of control) [3, 7]: 310% of control
- GABA Level (calculated as percent of control) [3, 8]: 490% of control
- GABA Level (calculated as percent of control) [3, 9]: 600% of control
- effectiveness by oral versus i.p. route ([3]; oral vs i.p., Table 3): equally effective when given by the oral and i.p. routes of administration
- GABA Level (calculated as percent of control) [3, 10]: 330% of control
- GABA Level (calculated as percent of control) [3, 11]: 434% of control
- GABA Level (calculated as percent of control) [3, 12]: 530% of control
- GABA Level (calculated as percent of control) [3, 13]: 470% of control
- GABA Level (calculated as percent of control) [3, 14]: 530% of control
- GABA Level (calculated as percent of control) [3, 15]: 770% of control
- selectivity ratio ([4]; mouse, in vivo, ip): 4 to 5
- No. of dead animals ([4]; mouse, in vivo, ip, 500 mg/kg): 0/5
- No. of dead animals Day 4 ([4]; mouse, in vivo, ip, 500 mg/kg): 0/5
- No. of dead animals ([4]; mouse, in vivo, ip, 750 mg/kg): 3/5
- No. of dead animals Day 4 ([4]; mouse, in vivo, ip, 750 mg/kg): 3/5
- No. of dead animals ([4]; mouse, in vivo, ip, 1000 mg/kg): 2/5 and 4/5 and 5/5
- No. of dead animals Day 4 ([4]; mouse, in vivo, ip, 1000 mg/kg): 5/5
- No. of dead animals ([4]; mouse, in vivo, ip, 1500 mg/kg): 5/5
- No. of dead animals Day 4 ([4]; mouse, in vivo, ip, 1500 mg/kg): 5/5
- No. of dead animals Day 4 ([4]; mouse, in vivo, po, 500 mg/kg): 0/5
- No. of dead animals Day 4 ([4]; mouse, in vivo, po, 750 mg/kg): 0/5
- No. of dead animals Day 4 ([4]; mouse, in vivo, po, 1000 mg/kg): 0/5
- No. of dead animals Day 4 ([4]; mouse, in vivo, po, 1500 mg/kg): 0/5
- toxicity by oral administration ([4]; oral): did not show toxicity by the oral route up to a dose of 1500 mg/kg
- GABA-T Activity (calculated as percent inhibition) ([5]; 50 mg/kg i.p. daily for 7 days): 55 percent inhibition
- GABA-T Activity (calculated as percent inhibition) [5, 16]: 74 percent inhibition
- Number of Animals having seizures ([6]; 0.39 mMole/kg i.p.): 5/5
- Number of Dead animals ([6]; 0.39 mMole/kg i.p.): 3/5
- Number of Animals having seizures ([6]; 0.77 mMole/kg i.p.): 5/5
- Number of Dead animals ([6]; 0.77 mMole/kg i.p.): 2/5
- Number of Animals having seizures ([6]; 1.9 mMole/kg i.p.): 3/5
- Number of Dead animals ([6]; 1.9 mMole/kg i.p.): 0/5
- Number of Animals having seizures ([6]; 3.9 mMole/kg i.p.): 3/5
- Number of Dead animals ([6]; 3.9 mMole/kg i.p.): 0/5
- effect on number of dead animals [6, 17]: significantly reduces the number of dead animals
- protection against seizures [6, 17]: does not protect totally against seizures
